Measurements reported in patent US12564582B2 (Prilenia Neurotherapeutics Ltd., priority 2016, dated 2026).
Where two headings read alike, the source gives them in different places.

Key:
[1] = test system: L-DOPA-induced dystonia
From the text: Data are median (FIG. 19A) with individual values (FIG. 19BB). N=8 for all treatment groups. */**/*** represents P<0.05, P<0.01 or P<0.001 cf. vehicle-treatment. 2-way RM ANOVA (FIG. 19A) with Holm-Sidak's test or Friedman test with Dunn's test (FIG. 19B).

[2] = test system: patients with Huntington's disease; conditions: for Δ to placebo, change from baseline in UHDRS TMS Gait and Balances: Week 52; for Δ to placebo, change from baseline in UHDRS TMS Gait and Balance: BL TFC≥7
From the text: • CIBIC-Plus global score as compared to baseline • Change from baseline in the PDS score • Change from baseline in UHDRS FA • CGIC as compared to baseline • Change from baseline in UHDRS TFC • Change from baseline in UHDRS IS Global/Functional Scales: • Change from baseline in HD QOL • Change from baseline in Walk-12 scale TMS Subscores: • Change from baseline in hand movement score (defined as the sum of UHDRS domains finger taps, pronate-supinate hands and luria [fist-hand-palm test]) • Change from baseline in Gait and balance score (defined as the sum of UHDRS domains gait, tandem walking and retropulsion pull test) • Change from baseline in UHDRS mMS (defined as the sum of UHDRS domains dysarthria, tongue protrusion, finger taps, pronate-supinate hands, luria, rigidity, bradykinesia, gait, tandem walking, retropulsion pull test) • Change from baseline in UHDRS Chorea • Change from baseline in UHDRS Dystonia • Responders, defined as patients with UHDRS TMS change from baseline≤0 Other Motor Assessments: • Change from baseline in Q Motor measurements including digitomotography (speeded index finger tapping), dysdiadochomotography (pronation/supination hand tapping), manumotography and choreomotography (grip force and chorea analysis) and pedomotography (speeded foot tapping) • Change from baseline in the TUG test Cognitive/Psychiatric Assessments: • Change from baseline in HD-CAB brief: SDMT, Emotion Recognition, Trail Making Test, HVLT-R, Paced Tapping at 3 Hz, OTS. • Change from baseline in PBA-s Safety Variables and Endpoints
The gait and balance score is defined as the sum of UHDRS domains gait, tandem walking and retropulsion pull test.

[3] = test system: rat striatum; conditions: transcriptomic analysis (Geva 2016); cited from earlier work
[4] = test system: patients with Huntington's disease; conditions: 45 mg bid
[5] = test system: neuroblastoma cell line; conditions: SIR-dependent manner (Geva 2016); cited from earlier work
[6] = test system: patients with DYT1 and other primary genetic forms of dystonia; conditions: 45 mg b.i.d., 90 mg b.i.d.; 26 weeks
From the text: The study population consists of those with DYT1 and other primary genetic forms of dystonia, as confirmed by genetic testing. The study's other inclusion criteria are patients with a BFMD score greater than 6, male or female patients, patients of any race or ethnicity, and patients with the ability to provide informed consent.
Burke-Fahn-Marsden Dystonia Rating Scale (BFMDRS) Rating Scale evaluates nine body parts (eyes, mouth, speech, swallowing, neck, trunk, right arm, right leg, left arm, and left leg) by rating the severity factor and provoking factors for each part on a 5 point scale of 0 (no dystonia) to 4 (indicating the presence of dystonia at rest). The dystonia scores of the eyes, mouth and neck are assigned a weighting factor of 0.5, while the other 6 parts are assigned a weighting factor of 1.0. The score of each part is obtained by multiplying the provoking factor by the severity factor and the weighting factor, and then summing the scores of each part. The maximum score possible is 120. A higher score indicates more severe dystonia. […]

[7] = test system: patients with Huntington's disease
Protocol: These variables were analyzed in the same way as the primary efficacy endpoint except that the variable evaluation at baseline were included in the model instead of baseline UHDRS-TMS.

[8] = test system: human patients afflicted with dystonia; conditions: periodic (daily or twice daily) oral administration
[9] = test system: patients with Huntington's disease; conditions: for Δ to placebo, change from baseline in Q-Motor: Tap-Speed-Inter-Onset-interval-MN-Hand: Week 52
From the text: The patient places their hand on a hand rest with their index finger positioned above a force-transducer. Recordings start after practice runs. The patient is instructed to finger tap as fast as possible between 2 auditory cues. The beginning of a tap is defined as a rise of the force by 0.05 N above maximal baseline level. The tap ends when it drops to 0.05 N before the maximal baseline level is reached again. The duration and variability of tap durations (TD), inter onset intervals (IOI), inter peak intervals (IPI), and inter tap intervals (ITI) are the exploratory outcome measures for speeded tapping. In addition, variability of peak tapping forces (TF) is calculated as coefficient of variation, and the tapping frequency (Freq), i.e., the number of taps between the onsets of the first and the last tap divided by the time in between, is determined. Five trials of 10 seconds duration are performed with each hand.

[10] = 45 mg bid, Week 26, Stage 1 BL TFC 11-13
[11] = 45 mg bid, Week 52, Stage 1 BL TFC 11-13
[12] = 45 mg bid, Week 52, all pridopidine treated patients
[13] = 67.5 mg bid, Week 26, Stage 1 BL TFC 11-13
[14] = 67.5 mg bid, Week 52, Stage 1 BL TFC 11-13
[15] = 67.5 mg bid, Week 52, all pridopidine treated patients
[16] = 90 mg bid, Week 26, Stage 1 BL TFC 11-13
[17] = 90 mg bid, Week 52, Stage 1 BL TFC 11-13
[18] = 90 mg bid, Week 52, all pridopidine treated patients
[19] = 112.5 mg bid, Week 26, Stage 1 BL TFC 11-13
[20] = 112.5 mg bid, Week 52, Stage 1 BL TFC 11-13
[21] = 112.5 mg bid, Week 52, all pridopidine treated patients

Structure (SMILES): CCCN1CCC(c2cccc(S(C)(=O)=O)c2)CC1 [pridopidine, 4-[3-(methylsulfonyl)phenyl]-1-propyl-piperidine]
- levels of dystonia, significance cf. LDh-vehicle ([1]; 15 mg/kg, 1 h epoch 1): ns
- levels of dystonia, significance cf. LDh-vehicle ([1]; 15 mg/kg, 1 h epoch 2): ns
- levels of dystonia, significance cf. LDh-vehicle ([1]; 15 mg/kg, 1 h epoch 3): ns
- levels of dystonia, significance cf. LDh-vehicle ([1]; 15 mg/kg, 1 h epoch 4): ns
- levels of dystonia, significance cf. LDh-vehicle ([1]; 15 mg/kg, 1 h epoch 5): ns
- levels of dystonia, significance cf. LDh-vehicle ([1]; 15 mg/kg, 1 h epoch 6): ns
- levels of dystonia, significance cf. LDh-vehicle ([1]; 20 mg/kg, 1 h epoch 1): * (P<0.05)
- levels of dystonia, significance cf. LDh-vehicle ([1]; 20 mg/kg, 1 h epoch 2): ns
- levels of dystonia, significance cf. LDh-vehicle ([1]; 20 mg/kg, 1 h epoch 3): ns
- levels of dystonia, significance cf. LDh-vehicle ([1]; 20 mg/kg, 1 h epoch 4): ns
- levels of dystonia, significance cf. LDh-vehicle ([1]; 20 mg/kg, 1 h epoch 5): ns
- levels of dystonia, significance cf. LDh-vehicle ([1]; 20 mg/kg, 1 h epoch 6): ns
- median levels of dystonia ([1]; 20 mg/kg, first hour): between moderate and marked
- levels of dystonia, significance cf. LDh-vehicle ([1]; 30 mg/kg, 1 h epoch 1): ** (P<0.01)
- levels of dystonia, significance cf. LDh-vehicle ([1]; 30 mg/kg, 1 h epoch 2): *** (P<0.001)
- levels of dystonia, significance cf. LDh-vehicle ([1]; 30 mg/kg, 1 h epoch 3): * (P<0.05)
- levels of dystonia, significance cf. LDh-vehicle ([1]; 30 mg/kg, 1 h epoch 4): ns
- levels of dystonia, significance cf. LDh-vehicle ([1]; 30 mg/kg, 1 h epoch 5): ns
- levels of dystonia, significance cf. LDh-vehicle ([1]; 30 mg/kg, 1 h epoch 6): ns
- median levels of dystonia (printed dyskinesia) ([1]; 30 mg/kg, cumulated over 0-2 h): below mild (non-disabling)
- reduction of median levels of dystonia compared to LDh-vehicle ([1]; 30 mg/kg, cumulated over 0-2 h): 72%
- median levels of dystonia ([1]; 30 mg/kg, first, second and third hours): mild to moderate
- levels of L-DOPA-induced dystonia evoked by LDh ([1]; 15, 20, 30 mg/kg combined with LDh): significant and dose-dependent reduction
- Δ to placebo, change from baseline in UHDRS TMS Gait and Balances ([2]; 45 mg bid, Stage 1 BL TFC 11-13): −0.94
- Δ to placebo, change from baseline in UHDRS TMS Gait and Balances ([2]; 45 mg bid, all pridopidine treated patients): −0.09
- Δ to placebo, change from baseline in UHDRS TMS Gait and Balance ([2]; 45 mg bid, week 26): −0.48
- Δ to placebo, change from baseline in UHDRS TMS Gait and Balance ([2]; 45 mg bid, week 52): −0.41
- Δ to placebo, change from baseline in UHDRS TMS Gait and Balances ([2]; 67.5 mg bid, Stage 1 BL TFC 11-13): −0.53
- Δ to placebo, change from baseline in UHDRS TMS Gait and Balances ([2]; 67.5 mg bid, all pridopidine treated patients): −0.05
- Δ to placebo, change from baseline in UHDRS TMS Gait and Balance ([2]; 67.5 mg bid, week 26): −0.37
- Δ to placebo, change from baseline in UHDRS TMS Gait and Balance ([2]; 67.5 mg bid, week 52): −0.43
- Δ to placebo, change from baseline in UHDRS TMS Gait and Balances ([2]; 90 mg bid, Stage 1 BL TFC 11-13): −0.49
- Δ to placebo, change from baseline in UHDRS TMS Gait and Balances ([2]; 90 mg bid, all pridopidine treated patients): −0.01
- Δ to placebo, change from baseline in UHDRS TMS Gait and Balance ([2]; 90 mg bid, week 26): −0.62
- Δ to placebo, change from baseline in UHDRS TMS Gait and Balance ([2]; 90 mg bid, week 52): −0.28
- Δ to placebo, change from baseline in UHDRS TMS Gait and Balances ([2]; 112.5 mg bid, Stage 1 BL TFC 11-13): −0.4
- Δ to placebo, change from baseline in UHDRS TMS Gait and Balances ([2]; 112.5 mg bid, all pridopidine treated patients): 0.04
- Δ to placebo, change from baseline in UHDRS TMS Gait and Balance ([2]; 112.5 mg bid, week 26): −0.49
- Δ to placebo, change from baseline in UHDRS TMS Gait and Balance ([2]; 112.5 mg bid, week 52): −0.09
- expression of the BDNF, dopamine receptor 1 (D1R), glucocorticoid receptor (GR) and Akt/PI3K pathways [3]: activates expression
- Responders, UHDRS TMS dystonia (improved or no change) ([4]; BL dystonia score ≥4, completed 52 weeks, FIG. 16a, placebo 60.0%): 77.8%
- Responders, UHDRS TMS dystonia (improved, change≥1) ([4]; BL dystonia score ≥4, completed 52 weeks, FIG. 16b, placebo […]): 66.7%
- Responders, UHDRS-Limb Dystonia item (improved, change≥1) ([4]; BL dystonia score ≥4, completed 52 weeks, placebo […]): 77.2%
- Responders, chorea+dystonia items ([4]; placebo 66.7%): 77.8%
- secretion of brain-derived neurotrophic factor (BDNF) [5]: enhances secretion
- secondary outcomes (CGI, Patient Global Assessment, VAS pain, BFMDS, EQ-5D, SF-36 etc.) [6]: improve the secondary outcomes
- severity of dystonia (BFMDRS or UDRS), primary endpoint [6]: improve the severity of dystonia
- Δ to placebo, change from baseline in UHDRS TMS Excluding Dystonia ([7]; 45 mg bid, Week 26, ALL): 1.39
- Δ to placebo, change from baseline in UHDRS TMS Involuntary Movements ([7]; 45 mg bid, Week 26, ALL): 0.89
- Δ to placebo, change from baseline in UHDRS TMS Excluding Dystonia [7, 10]: −3.6
- Δ to placebo, change from baseline in UHDRS TMS Involuntary Movements [7, 10]: −2.49
- Δ to placebo, change from baseline in UHDRS TMS Excluding Chorea [7, 11]: −4.09
- Δ to placebo, change from baseline in UHDRS TMS Involuntary Movements [7, 11]: −2.73
- Δ to placebo, change from baseline in UHDRS TMS Excluding Chorea [7, 12]: 0.05
- Δ to placebo, change from baseline in UHDRS TMS Involuntary Movements [7, 12]: 0.02
- Δ to placebo, change from baseline in UHDRS TMS Excluding Dystonia ([7]; 67.5 mg bid, Week 26, ALL): 1.97
- Δ to placebo, change from baseline in UHDRS TMS Involuntary Movements ([7]; 67.5 mg bid, Week 26, ALL): 0.48
- Δ to placebo, change from baseline in UHDRS TMS Excluding Dystonia [7, 13]: −2.2
- Δ to placebo, change from baseline in UHDRS TMS Involuntary Movements [7, 13]: −3.07
- Δ to placebo, change from baseline in UHDRS TMS Excluding Chorea [7, 14]: −0.18
- Δ to placebo, change from baseline in UHDRS TMS Involuntary Movements [7, 14]: −0.2
- Δ to placebo, change from baseline in UHDRS TMS Excluding Chorea [7, 15]: 1.31
- Δ to placebo, change from baseline in UHDRS TMS Involuntary Movements [7, 15]: 0.8
- Δ to placebo, change from baseline in UHDRS TMS Excluding Dystonia ([7]; 90 mg bid, Week 26, ALL): 1.2
- Δ to placebo, change from baseline in UHDRS TMS Involuntary Movements ([7]; 90 mg bid, Week 26, ALL): 0.01
- Δ to placebo, change from baseline in UHDRS TMS Excluding Dystonia [7, 16]: −4.35
- Δ to placebo, change from baseline in UHDRS TMS Involuntary Movements [7, 16]: −4
- Δ to placebo, change from baseline in UHDRS TMS Excluding Chorea [7, 17]: −4.92
- Δ to placebo, change from baseline in UHDRS TMS Involuntary Movements [7, 17]: −3.8
- Δ to placebo, change from baseline in UHDRS TMS Excluding Chorea [7, 18]: 1.67
- Δ to placebo, change from baseline in UHDRS TMS Involuntary Movements [7, 18]: −0.26
- Δ to placebo, change from baseline in UHDRS TMS Excluding Dystonia ([7]; 112.5 mg bid, Week 26, ALL): 2.4
- Δ to placebo, change from baseline in UHDRS TMS Involuntary Movements ([7]; 112.5 mg bid, Week 26, ALL): 0.76
- Δ to placebo, change from baseline in UHDRS TMS Excluding Dystonia [7, 19]: −4.31
- Δ to placebo, change from baseline in UHDRS TMS Involuntary Movements [7, 19]: −1.64
- Δ to placebo, change from baseline in UHDRS TMS Excluding Chorea [7, 20]: −1.59
- Δ to placebo, change from baseline in UHDRS TMS Involuntary Movements [7, 20]: 0.8
- Δ to placebo, change from baseline in UHDRS TMS Excluding Chorea [7, 21]: 1.94
- Δ to placebo, change from baseline in UHDRS TMS Involuntary Movements [7, 21]: 0.57
- dystonia in afflicted patients [8]: effective to reduce dystonia
- Δ to placebo, change from baseline in Q-Motor: Tap-Speed-Inter-Onset-interval-MN-Hand ([9]; 45 mg bid, FAS): -0.0402 s
- Δ to placebo, change from baseline in Q-Motor: Tap-Speed-Inter-Onset-interval-MN-Hand ([9]; 45 mg bid, HD1 and HD2 patients): -0.0351 s
- Δ to placebo, change from baseline in Q-Motor: Tap-Speed-Inter-Onset-interval-MN-Hand ([9]; 67.5 mg bid, FAS): 0.0152 s
- Δ to placebo, change from baseline in Q-Motor: Tap-Speed-Inter-Onset-interval-MN-Hand ([9]; 67.5 mg bid, HD1 and HD2 patients): -0.0464 s
- Q-Motor Tap Speed Inter Onset interval (IOI) ([9]; 90 mg bid): consistent and significant improvement from baseline
- Q-Motor Tap-Speed-Frequency ([9]; 90 mg bid): consistent improvement from baseline
- Δ to placebo, change from baseline in Q-Motor: Tap-Speed-Inter-Onset-interval-MN-Hand ([9]; 90 mg bid, FAS): -0.0064 s
- Δ to placebo, change from baseline in Q-Motor: Tap-Speed-Inter-Onset-interval-MN-Hand ([9]; 90 mg bid, HD1 and HD2 patients): -0.0291 s
- Δ to placebo, change from baseline in Q-Motor: Tap-Speed-Inter-Onset-interval-MN-Hand ([9]; 112.5 mg bid, FAS): -0.017 s
- Δ to placebo, change from baseline in Q-Motor: Tap-Speed-Inter-Onset-interval-MN-Hand ([9]; 112.5 mg bid, HD1 and HD2 patients): -0.022 s
